Experimental data published in ChEMBL document CHEMBL5604062, “ASAP - ZIKV NS2B-NS3 protease fluorescence dose response” (2024).
Values joined by “and” are separate entries in the source; they are usually repeats but may differ in a detail not shown here. Equal values may be shown once. Residues, ends and D or L forms follow the SMILES beside them. *: point of attachment. pNA = O=[N+]([O-])c1ccc(N*)cc1; Boc = CC(C)(C)OC(=O)*

Experiments:
Nonstructural protein 3 [1] = biological target: T1, Nonstructural protein 3 (Zika virus, UniProt A0A024AXB9); test: Functional biochemical assay to identify treatments for viral infectious disease that targets Zika NS2B-NS3 protease. Utilizing a direct enzyme activity measurement method, reading the fluorescence intensity is used to characterize the relative potency of inhibitors as IC50. Synthetic construct has been made based on Zika virus (strain PRVABC59) by Centre for Medicines Discovery, University of Oxford, and the assay has been performed by Enamine biological services, Bienta Ltd.The protocol is publicly available: dx.doi.org/10.17504/protocols.io.36wgqn273gk5/v1
Nonstructural protein 3 [2] = biological target: T1, Nonstructural protein 3; test: Functional biochemical assay to identify treatments for viral infectious disease that targets Zika NS2B-NS3 protease. Utilizing a direct enzyme activity measurement method, reading the fluorescence intensity is used to characterize the relative potency of inhibitors as IC50.; parameters: species or system PRVABC59

T1 sequence (A0A024AXB9 whole entry): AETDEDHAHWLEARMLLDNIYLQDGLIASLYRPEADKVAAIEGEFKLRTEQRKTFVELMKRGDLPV

Structure (SMILES) | IC50 (Nonstructural protein 3 [1]) | IC50 (Nonstructural protein 3 [2])
N=C(N)NCCC[C@H](NC(=O)c1nccs1)C(=O)N[C@@H](CCCCN)C(=O)N[C@@H](C(N)=O)c1ccc(OCc2ccc(C(F)(F)F)cc2)cc1 | 6210 nM and 4390 nM and 8320 nM and 7700 nM and 6310 nM and 6150 nM and 5910 nM and 5860 nM and 5590 nM | –
N=C(N)NCCC[C@H](NC(=O)[C@H](Cc1ccc(CN)cc1)NC(=O)c1ccccc1)B(O)O | 559 nM and 327 nM and 558 nM and 628 nM and 585 nM and 637 nM and 438 nM and 552 nM and 595 nM | 508 nM and 353 nM and 260 nM and 186 nM and 245 nM and 211 nM (2×) and 238 nM and < 2.49 µM (9×) and 73 nM and 247 nM and 292 nM and 237 nM and 241 nM and 141 nM and 262 nM and 254 nM and 233 nM
O=C(NC1CCOCC1)[C@H](Nc1ccc2c(c1)CNC2)c1cc(Cl)cc(C2CC2)c1 | 1020 nM and 213 nM | –
N#Cc1cccc(-c2nc3c(C(=O)Nc4cccnc4)cc(Cl)cc3[nH]2)c1 | > 25000 nM | –
N#Cc1cccc(-c2nc3c(C(=O)Nc4ccncc4)cc(Cl)cc3[nH]2)c1 | > 25000 nM | –
N#Cc1cccc(-c2nc3c(C(=O)NCc4ccccc4)cc(Cl)cc3[nH]2)c1 | > 25000 nM | –
CCOC(=O)[C@H](Nc1ccc2c(c1)CNC2)c1cc(Cl)cc(C2CC2)c1 | – | 64 nM and 87 nM
O=C(Nc1ccc2c(c1)CNC2)c1ccc2c(c1)C1(CC1)C(=O)N2 | – | 1770 nM
O=C1Cc2c(cccc2C(=O)Nc2ccc3c(c2)[C@H](O)CCO3)N1 | > 25000 nM | > 25000 nM
CSc1cc2c(cc1NC(=O)c1cc(F)cc3[nH]ncc13)CNC2 | – | 47 nM and 32 nM
CN1CCC[C@H](c2nc3c(C(=O)Nc4ccc5c(c4)CNC5)cc(F)cc3[nH]2)C1=O | – | 163 nM
O=C(NCC(F)F)[C@H](Nc1ccc2c(c1)CNC2)c1cc(Br)cc2nc[nH]c12 | 201 nM | 44 nM and 37 nM
O=C1Cc2c(cccc2C(=O)Nc2cnn(Cc3ccncc3)c2)N1 | > 25000 nM | > 25000 nM
O=C1Cc2c(cccc2C(=O)Nc2ccc3[nH]nnc3c2)N1 | – | > 25000 nM
CC(C)(C)OC(=O)N1Cc2cc(NC(=O)c3cc(Cl)cc4c3cnn4[C@@H]3CCCCO3)ccc2[C@H]1CO | – | > 25000 nM
CO[C@]1(C)C(=O)Nc2cc(F)cc(C(=O)Nc3ccc4c(c3)CNC4)c21 | – | 1190 nM
O=C1Cc2c(cccc2C(=O)Nc2ccc3c(c2)CCNCC3)N1 | 2110 nM | 1230 nM
C[C@]1(OCCCO)C(=O)Nc2cc(F)cc(C(=O)Nc3ccc4c(c3)CNC4)c21 | – | 768 nM
O=C(Nc1cnc2c(c1)CNC2)c1cc(F)cc2[nH]ncc12 | 83 nM | 27 nM and 15 nM
CC(C)CO[C@]1(C)C(=O)Nc2cc(F)cc(C(=O)Nc3ccc4c(c3)CNC4)c21 | – | 2480 nM
Cc1cc(C(=O)Nc2ccc3c(c2)CNC3)cc2nn[nH]c12 | – | 3340 nM
CC(C)c1nnc(-c2nc3c(C(=O)Nc4ccc5c(c4)CNC5)cc(F)cc3[nH]2)s1 | – | 161 nM and 559 nM
CNC(=O)c1cc(Br)cc([C@H](Nc2ccc3c(c2)CNC3)C(=O)NCC(F)F)c1 | 104 nM and 88 nM | 19 nM and < 12 nM
O=C1Nc2ccc(C(=O)Nc3ccc4c(c3)CNC4)cc2C1=O | 8150 nM | 1470 nM and 1730 nM
CCS(=O)(=O)c1ccc(Cl)cc1[C@H](Nc1ccc2c(c1)CNC2)C(=O)NCC(F)F | – | 875 nM
COc1ccc(-c2nc3c(C(=O)Nc4ccc5c(c4)CNC5)cc(F)cc3[nH]2)nn1 | 90 nM and 98 nM | 23 nM (2×) and 14 nM and 27 nM

Structure (SMILES) | IC50 (Nonstructural protein 3 [1]) | IC50 (Nonstructural protein 3 [2])
Cc1c(C(=O)Nc2cc(C(=O)N3CC4(CCO4)C3)ccn2)cc(C2CC2)n1C | – | > 25000 nM
O=C1Cc2c(cccc2C(=O)Nc2cnc(OC3CCC3)nc2)N1 | – | > 25000 nM
Cn1nc([C@H](Nc2cc([C@H]3CCOC3)ccn2)C(F)(F)F)cc1C1CC1 | – | > 25000 nM
COc1cc(Cl)cc([C@H](Nc2ccc3c(c2)CNC3)C(=O)NCC(F)F)c1 | – | 33 nM and 21 nM
Cc1cc(CN)cc(NC(=O)c2cccc3c2CC(=O)N3)c1 | – | 3050 nM
Cc1c(C(=O)Nc2cc(C(=O)N(C)C3COC3)ccn2)cc(C2CC2)n1C | – | > 25000 nM
O=C1Cc2c(cccc2C(=O)Nc2ccc(Cl)c(CO)n2)N1 | – | > 25000 nM
O=C(Nc1ccc2c(c1)CNC2)c1cc(F)cc(-c2cnc3n2CCC3)c1 | – | 236 nM
N#Cc1cccc(-c2nc3c(C(=O)NCc4ccccn4)cc(Cl)cc3[nH]2)c1 | > 25000 nM | –
N#CCc1cc(NC(=O)c2cc(F)cc3[nH]ncc23)cc2c1CNC2 | 70 nM and 79 nM | 16 nM and < 12 nM
C[C@]1(OCCO)C(=O)Nc2cc(F)cc(C(=O)Nc3ccc4c(c3)CNC4)c21 | – | 1140 nM
O=C(NCC(F)F)[C@H](Nc1ccc2c(c1)CNC2)c1cc(Cl)cc(Cl)c1OCCN1CCOCC1 | – | 197 nM
NCc1ccc(-c2csc3cc(C(=O)Nc4ccc5c(c4)CNC5)ccc23)cc1 | – | 888 nM and 889 nM
O=C1Cc2c(cccc2C(=O)Nc2ccc3c(c2)CNCC3)N1 | – | 3030 nM
N#Cc1cccc(-c2nc3c(C(=O)NCc4cccnc4)cc(Cl)cc3[nH]2)c1 | > 25000 nM | –
O=C(NCC(F)F)[C@H](Nc1cnc2c(c1)CNC2)c1cc(Cl)cc(C2CC2)c1 | 114 nM and 107 nM | 20 nM and < 12 nM
O=C(Nc1ccc2c(c1)CNC2)c1cc(F)cc2[nH]c(-c3cnccc3O)nc12 | – | 130 nM
NCc1csc2cc(C(=O)Nc3ccc4c(c3)CNC4)ccc12 | 216 nM | 125 nM and 219 nM
CC(C)Oc1ccc(Cl)cc1[C@H](Nc1ccc2c(c1)CNC2)C(=O)NCC(F)F | – | 106 nM
Cc1cc([C@H](Nc2ccc3c(c2)CNC3)C(=O)NCC(F)F)cc(C(F)(F)F)c1 | – | 19 nM and < 12 nM
O=C(Nc1ccc2c(c1)CNC2)c1cc(Cl)cc2[nH]c(-c3cccc(F)c3)nc12 | 4210 nM | –
O=C(Nc1ccc2c(c1)CNC2)c1cccc2c(C3CNC3)n[nH]c12 | 89 nM | 17 nM and 16 nM and < 12 nM
O=C1Cc2c(cccc2C(=O)Nc2ccc(O[C@H]3CCOC3)nc2)N1 | – | > 25000 nM
O=C(NCC(F)F)[C@H](Nc1ccc2c(c1)CNC2)c1cc(Br)ccc1OCc1ccccn1 | – | 150 nM
Clc1cc(CNc2ccc3c(c2)[C@@H]2CC[C@H]3N2)c2cn[nH]c2c1 | – | > 25000 nM
O=C1Cc2c(cccc2C(=O)Nc2cccc(Cc3nn[nH]n3)c2)N1 | > 25000 nM | > 25000 nM

Structure (SMILES) | IC50 (Nonstructural protein 3 [1]) | IC50 (Nonstructural protein 3 [2])
O=C1Cc2c(cccc2C(=O)Nc2ccc3c(c2)CNCCO3)N1 | – | 1480 nM
NCc1cccc(NC(=O)c2cccc3c2CC(=O)N3)c1 | 2320 nM | 1540 nM
CS(=O)(=O)c1cncc(-c2cc(F)cc(C(=O)Nc3ccc4c(c3)CNC4)c2)c1 | 158 nM | 88 nM and 77 nM
CC(=O)N(c1ccc2c(c1)CNC2)[C@H](C(=O)NCC(F)F)c1cc(Cl)cc(C2CC2)c1 | – | 1930 nM
COCCO[C@]1(C)C(=O)Nc2cc(F)cc(C(=O)Nc3ccc4c(c3)CNC4)c21 | – | 3160 nM
O=C(NCC(F)F)[C@H](Nc1ccc2c(c1)CNC2)c1cc(Br)ccc1C1CC1 | 636 nM | 358 nM
CCc1cnc2c(NC(=O)c3cccc4c3CC(=O)N4)cnn2c1 | > 25000 nM | > 25000 nM
O=C(Nc1ccc2c(c1)CNC2)c1cc(F)cc2[nH]c(-c3ccc(F)cc3O)nc12 | – | 39 nM and 24 nM
N#Cc1c[nH]c2c(C(=O)Nc3ccc4c(c3)CNC4)cccc12 | – | 582 nM
O=C1Cc2c(cccc2C(=O)Nc2ccc3c(n2)CNC3)N1 | – | 1420 nM
O=C(NCC(F)F)[C@H](Nc1ccc2c(c1)CNC2)c1cc(Br)cc2ccccc12 | 143 nM and 147 nM | 99 nM and 77 nM
O=C(Nc1ccc2c(c1)CNC2)c1cc(Cl)cc2[nH]c(-c3ccccc3)nc12 | 2520 nM | –
CN1CCc2c([nH]c3ccc(C(=O)Nc4ccc5c(c4)CNC5)cc23)C1=O | – | 1170 nM
Cc1[nH]c2c(C(=O)Nc3ccc4c(c3)CNC4)cccc2c1C | – | 1190 nM
O=C(Nc1cc2c(cn1)CNC2)c1cc(F)cc2[nH]ncc12 | 163 nM | 77 nM and 55 nM
O=C(O)C[C@H]1NCc2cc(NC(=O)c3cc(Cl)cc4[nH]ncc34)ccc21 | – | 952 nM
O=C(NCC(F)F)[C@H](Nc1ccc2c(c1)CNC2)c1cc(Cl)ccc1OC[C@H]1CCCO1 | – | 129 nM
O=C1CCc2cc(C(=O)Nc3ccc4c(c3)CNC4)cc(F)c2N1 | – | 1490 nM
CC(C)O[C@]1(C)C(=O)Nc2cc(F)cc(C(=O)Nc3ccc4c(c3)CNC4)c21 | – | 1260 nM
Cc1c(C(=O)Nc2cc(C(=O)N3CC(C(N)=O)C3)ccn2)cc(C2CC2)n1C | – | > 25000 nM
NCc1csc2cc(C(=O)Nc3cc([C@H]4CCOC4)ccn3)ccc12 | – | > 25000 nM
N[C@H]1Cc2ccc(NC(=O)c3cccc4c3CC(=O)N4)cc2C1 | 7500 nM | 2770 nM
CSCC[C@H](NC(=O)OC(C)(C)C)C(=O)N1CCC[C@H]1C(=O)Nc1ccc([N+](=O)[O-])cc1 (Boc-Met-Pro-pNA) | – | > 99500 nM
CSCC[C@H](N)C(=O)N1CCC[C@H]1C(=O)Nc1ccc([N+](=O)[O-])cc1 (H-Met-Pro-pNA) | – | > 99500 nM
O=C(Nc1ccccc1)OCc1ccccc1 [BENZYL PHENYLCARBAMATE] | – | > 100000 nM
O=C(Nc1ccccc1)Oc1ccccc1 [PHENYL PHENYLCARBAMATE] | – | > 100000 nM
